Laboratory results as given in patent US20160223526A1, “METHOD OF SCREENING FOR COMPOUNDS USEFUL IN THE TREATMENT OF HUNTINGTON DISEASE” (INNOVATIVE CONCEPTS IN DRUG DEVELOPMENT, priority 2013, published 2016).

Tested on: Patient-derived fibroblasts, cells from HD patient (ID 090401)
Assay: Reversal of the HD-signature (mitochondrial behaviour variables) by dynamic imaging of patient-derived fibroblasts
Type: cell-based, human
Conditions: for recovery (weighted overall rescue of the diseased phenotype, discriminant equation on 7 HD-signature variables): 30 min incubation, 0% = diseased status, 100% = healthy status
Protocol: Fibroblasts were labelled with MitoTracker green, a cell-permeant mitochondrial dye not sensitive to mitochondrial membrane potential, for 30 minutes. Images were recorded from an epifluorescence microscope continuously for 6 minutes. Cells were kept at 37° C. for the duration of the image capture. For each experimental condition, 3 to 15 cells were recorded per well from three independent plates, i.e. up to 6000 individual mitochondria. The maximum duration for data acquisition was 30 minutes (i.e. five cells observed during 6 min). Images were captured with a Zeiss Axioplan II microscope along three dimensions in space and in time.
Patient-derived fibroblasts were cultured in DMEM containing 15% fetal calf serum. and 0.5% DMSO, a concentration known to be inert on the mitochondrial behaviour.
Cells were incubated with different doses of resveratrol or cyclosporine A (CSA) diluted in DMSO or with the vehicle only (DMSO) for 30 minutes and observed through time-lapse video-microscopy for another 30 minutes during dynamic image capture.
Resveratrol and CSA were tested at 4 doses spanning […] (10, 1, 0.1 and 0.05 μM).
The negative control was cells from HD patient (ID 090401) with the vehicle only and the positive control was cells from healthy patient (ID 071201) with the vehicle only.
The raw data obtained for each mitochondrion were expressed as a ratio (%) according to the following formula: DATA=(NC−Var)*100/(NC−PC) (NC=average value of the negative control; PC=average value of the positive control; Var=value of the variable).
Effects are expressed as a percent of control values as defined above, i.e. % of phenotypic rescue. 0% represents the diseased status while 100% represents the healthy status.
To express the weighted effect of the variables on the overall rescue, a discriminant equation was applied.

Oc1ccc(C=Cc2cc(O)cc(O)c2)cc1 [Resveratrol]
recovery (weighted overall rescue of the diseased phenotype, discriminant equation on 7 HD-signature variables) (0.05 μM): detrimental effect with a mild worsening of the diseased status | recovery (weighted overall rescue of the diseased phenotype, discriminant equation on 7 HD-signature variables) (10 μM): exceeds the healthy status | overall effect / activity profile over the dose range (weighted dose-response on disease-modification) (doses 10, 1, 0.1 and 0.05 μM): disease-modifying capabilities and rescue of the disease status except at low dose
